Reference: ChEMBL document CHEMBL5678805, “Intermittent administration of MEK inhibitor GDC-0973 plus PI3K inhibitor GDC-0941 triggers robust apoptosis and tumor growth inhibition” (Cancer Res, 2012)
The source made the active and inactive calls. The calls are words filed in the database; no cut-off is given here.

Experiments:
A2058 [1] = experiment: Antitumor activity against human A2058 cells harboring BRAF V600E/PTEN deletion mutant xenografted in mouse assessed as decrease in tumor volume at 1.5 mg/kg, po administered once daily for 21 days in presence of GDC-0973 by digital calipers analysis; format: functional, organism-based; conditions: time 21.0 day
A2058 [2] = experiment: Antitumor activity against human A2058 cells harboring BRAF V600E/PTEN deletion mutant xenografted in mouse assessed as decrease in tumor volume at 10 mg/kg, po administered once weekly for 21 days in presence of GDC-0973 by digital calipers analysis; format: functional, organism-based; conditions: time 21.0 day
[3] = Antitumor activity against human A375.X1 cells xenografted in mouse assessed as tumor growth inhibition at 150 mg/kg, po administered every third day for 21 days in presence of (S)-(3,4-difluoro-2-((2-fluoro-4-iodophenyl)amino)phenyl)(3-hydroxy-3-(piperidin-2-yl)azetidin-1-yl)methanone; format: functional; conditions: A375.X1, 504 h, time 21 day, read-out: TGI
NCI-H2122 [4] = experiment: Antitumor activity against human NCI-H2122 cells xenografted in mouse assessed as tumor growth inhibition at 30 mg/kg, po administered once a day for 21 days; format: functional; conditions: NCI-H2122, 504 h, time 21 day, read-out: TGI
A2058 [5] = experiment: Antitumor activity against human A2058 cells xenografted in mouse assessed as tumor growth inhibition at 150 mg/kg, po administered every third day for 21 days; format: functional; conditions: A2058, 504 h, time 21 day, read-out: TGI
DLD-1 [6] = experiment: Antitumor activity against human DLD-1 cells xenografted in mouse assessed as tumor growth inhibition at 30 mg/kg, po administered once a day for 21 days; format: functional; conditions: DLD-1, 504 h, time 21 day, read-out: TGI
NCI-H2122 [7] = experiment: Antitumor activity against human NCI-H2122 cells xenografted in mouse assessed as tumor growth inhibition at 150 mg/kg, po administered […] for 21 days in presence of (S)-(3,4-difluoro-2-((2-fluoro-4-iodophenyl)amino)phenyl)(3-hydroxy-3-(piperidin-2-yl)azetidin-1-yl)methanone; format: functional; conditions: NCI-H2122, 504 h, time 21 day, read-out: TGI
DLD-1 [8] = experiment: Antitumor activity against human DLD-1 cells xenografted in mouse assessed as tumor growth inhibition at 50 mg/kg, po administered every third day for 21 days; format: functional; conditions: DLD-1, 504 h, time 21 day, read-out: TGI
[9] = Antitumor activity against human A375.X1 cells xenografted in mouse assessed as tumor growth inhibition at 150 mg/kg, po administered every third day for 21 days; format: functional; conditions: A375.X1, 504 h, time 21 day, read-out: TGI
A2058 [10] = experiment: Antitumor activity against human A2058 cells xenografted in mouse assessed as tumor growth inhibition at 30 mg/kg, po administered once a day for 21 days; format: functional; conditions: A2058, 504 h, time 21 day, read-out: TGI
NCI-H2122 [11] = experiment: Antitumor activity against human NCI-H2122 cells xenografted in mouse assessed as tumor growth inhibition at 100 mg/kg, po administered once a day for 21 days; format: functional; conditions: NCI-H2122, 504 h, time 21 day, read-out: TGI
[12] = Antitumor activity against human A375.X1 cells xenografted in mouse assessed as tumor growth inhibition at 100 mg/kg, po administered once a day for 21 days; format: functional; conditions: A375.X1, 504 h, time 21 day, read-out: TGI
NCI-H2122 [13] = experiment: Antitumor activity against human NCI-H2122 cells xenografted in mouse assessed as tumor growth inhibition at 30 mg/kg, po administered once a day for 21 days in presence of (S)-(3,4-difluoro-2-((2-fluoro-4-iodophenyl)amino)phenyl)(3-hydroxy-3-(piperidin-2-yl)azetidin-1-yl)methanone; format: functional; conditions: NCI-H2122, 504 h, time 21 day, read-out: TGI
DLD-1 [14] = experiment: Antitumor activity against human DLD-1 cells xenografted in mouse assessed as tumor growth inhibition at 50 mg/kg, po administered every third day for 21 days in presence of (S)-(3,4-difluoro-2-((2-fluoro-4-iodophenyl)amino)phenyl)(3-hydroxy-3-(piperidin-2-yl)azetidin-1-yl)methanone; format: functional; conditions: DLD-1, 504 h, time 21 day, read-out: TGI
NCI-H2122 [15] = experiment: Antitumor activity against human NCI-H2122 cells xenografted in mouse assessed as tumor growth inhibition at 100 mg/kg, po administered once a day for 21 days in presence of (S)-(3,4-difluoro-2-((2-fluoro-4-iodophenyl)amino)phenyl)(3-hydroxy-3-(piperidin-2-yl)azetidin-1-yl)methanone; format: functional; conditions: NCI-H2122, 504 h, time 21 day, read-out: TGI
[16] = Antitumor activity against human A375.X1 cells xenografted in mouse assessed as tumor growth inhibition at 100 mg/kg, po administered once a day for 21 days in presence of (S)-(3,4-difluoro-2-((2-fluoro-4-iodophenyl)amino)phenyl)(3-hydroxy-3-(piperidin-2-yl)azetidin-1-yl)methanone; format: functional; conditions: A375.X1, 504 h, time 21 day, read-out: TGI
[17] = Antitumor activity against human A375.X1 cells xenografted in mouse assessed as tumor growth inhibition at 30 mg/kg, po administered once a day for 21 days in presence of (S)-(3,4-difluoro-2-((2-fluoro-4-iodophenyl)amino)phenyl)(3-hydroxy-3-(piperidin-2-yl)azetidin-1-yl)methanone; format: functional; conditions: A375.X1, 504 h, time 21 day, read-out: TGI
DLD-1 [18] = experiment: Antitumor activity against human DLD-1 cells xenografted in mouse assessed as tumor growth inhibition at 30 mg/kg, po administered once a day for 21 days in presence of (S)-(3,4-difluoro-2-((2-fluoro-4-iodophenyl)amino)phenyl)(3-hydroxy-3-(piperidin-2-yl)azetidin-1-yl)methanone; format: functional; conditions: DLD-1, 504 h, time 21 day, read-out: TGI
A2058 [19] = experiment: Antitumor activity against human A2058 cells xenografted in mouse assessed as tumor growth inhibition at 30 mg/kg, po administered once a day for 21 days in presence of (S)-(3,4-difluoro-2-((2-fluoro-4-iodophenyl)amino)phenyl)(3-hydroxy-3-(piperidin-2-yl)azetidin-1-yl)methanone; format: functional; conditions: A2058, 504 h, time 21 day, read-out: TGI
A2058 [20] = experiment: Antitumor activity against human A2058 cells xenografted in mouse assessed as tumor growth inhibition at 100 mg/kg, po administered once a day for 21 days; format: functional; conditions: A2058, 504 h, time 21 day, read-out: TGI
[21] = Antitumor activity against human A375.X1 cells xenografted in mouse assessed as tumor growth inhibition at 30 mg/kg, po administered once a day for 21 days; format: functional; conditions: A375.X1, 504 h, time 21 day, read-out: TGI
NCI-H2122 [22] = experiment: Antitumor activity against human NCI-H2122 cells xenografted in mouse assessed as tumor growth inhibition at 150 mg/kg, po administered […] for 21 days; format: functional; conditions: NCI-H2122, 504 h, time 21 day, read-out: TGI

Structure (SMILES): Cc1c(CN2CCN(C(=O)[C@H](C)O)CC2)sc2c(N3CCOCC3)nc(-c3cnc(N)nc3)nc12
- Activity (A2058 [1]): Active
- Activity (A2058 [2]): Active

Structure (SMILES): CS(=O)(=O)N1CCN(Cc2cc3nc(-c4cccc5[nH]ncc45)nc(N4CCOCC4)c3s2)CC1 [PICTILISIB]
- inhibition in vivo at 150 mg/kg [3]: 118%
- inhibition in vivo at 30 mg/kg (NCI-H2122 [4]): 63%
- inhibition in vivo at 150 mg/kg (A2058 [5]): 50%
- inhibition in vivo at 30 mg/kg (DLD-1 [6]): 63%
- inhibition in vivo at 150 mg/kg (NCI-H2122 [7]): 87%
- inhibition in vivo at 50 mg/kg (DLD-1 [8]): 13%
- inhibition in vivo at 150 mg/kg [9]: 57%
- inhibition in vivo at 30 mg/kg (A2058 [10]): 24%
- inhibition in vivo at 100 mg/kg (NCI-H2122 [11]): 91%
- inhibition in vivo at 100 mg/kg [12]: -2%
- inhibition in vivo at 30 mg/kg (NCI-H2122 [13]): 75%
- inhibition in vivo at 50 mg/kg (DLD-1 [14]): 72%
- inhibition in vivo at 100 mg/kg (NCI-H2122 [15]): 156%
- inhibition in vivo at 100 mg/kg [16]: 122%
- inhibition in vivo at 30 mg/kg [17]: 69%
- inhibition in vivo at 30 mg/kg (DLD-1 [18]): 88%
- inhibition in vivo at 30 mg/kg (A2058 [19]): 73%
- inhibition in vivo at 100 mg/kg (A2058 [20]): 58%
- inhibition in vivo at 30 mg/kg [21]: 23%
- inhibition in vivo at 150 mg/kg (NCI-H2122 [22]): 43%
